# Experimental data as given in PMC9959130, “Effects of Side Chain and Peptide Bond Modifications on the Targeting Properties of Stabilized Minigastrin Analogs” (Pharmaceuticals, 2023).
# Like-named read-outs stand apart in the source and are kept apart here. Where a SMILES comes first, the peptide text is derived from it. [ ]: non-standard residue; d: D form. The star is where a group is joined. DOTA = O=C(O)CN1CCN(CC(=O)O)CCN(CC(=O)*)CCN(CC(=O)O)CC1; 1Nal = N[C@@H](Cc1cccc2ccccc12)C(=O)O; NMeNle = CCCC[C@H](NC)C(=O)O
# Tests used:
# [1] = Binding to serum proteins (incubation in human serum, Sephadex G-50 size exclusion chromatography); type: in vitro ADME; details: 37 °C; for Binding to Serum Proteins (%): 500 pmol/mL
# Procedure: Protein binding was determined by incubation of the radiolabeled peptides in human serum at 37 °C (500 pmol/mL, n = 2). For the time points of 1, 4, and 24 h after incubation, samples of 25 µL were subjected to Sephadex G-50 size exclusion chromatography (GE Healthcare Illustra, Little Chalfont, UK). The column and the eluate were measured using the γ-counter and the percentage of protein binding was calculated.
# [2] = In vitro stability in human serum (intact radiopeptide by radio-HPLC); type: in vitro ADME; details: fresh human serum, 37 °C, n = 2; for Intact Radiopeptide in Human Serum (%): 1000 pmol/mL
# Procedure: In vitro stability studies were performed in human serum (n = 2). The radiolabeled peptides (1000 pmol/mL) were incubated at 37 °C and a sample of 100 μL was taken at 1, 4, and 24 h after incubation. After the precipitation of proteins with ACN at 1:1.5 (v/v), centrifugation (14,000 rpm, 2 min, centrifuge 5424, Eppendorf AG, Germany) and dilution with water at 1:1 (v/v), an aliquot of 100 μL of this solution was analyzed by HPLC. Radioligand breakdown was monitored and the percentage of intact radiopeptide was calculated using Chromeleon Dionex Software (Version 7.2.9.11323). Additionally, the radiolabeled peptides (1000 pmol/mL) were incubated in PBS (n = 1) at room temperature to confirm the complex stability as a control.
# [3] = Distribution coefficient (LogD) in octanol/PBS; type: physicochemical; details: radiolabeled peptide (111In-labeled where the label names no radiometal), shake-flask octanol/PBS, 100 pmol/mL, 15 min shaking at 1500 rpm, γ-counter, mean ± SD, n = 8
# Procedure: The distribution coefficient (LogD) in octanol/PBS was determined by mixing 0.5 mL of the radiolabeled DOTA peptides diluted in PBS (100 pmol/mL) and 0.5 mL octanol in a 1.5 mL microcentrifuge tube (n = 8). After shaking for 15 min (MS3 Basic, IKA, Staufen, Germany) at 1500 rpm and a waiting time of 10 min to ensure appropriate separation of the two phases, 100 µL aliquots of each phase were pipetted into 4.5 mL tubes. The tubes were measured using a γ-counter (2480 Wizard2 3″, PerkinElmer Life Sciences and Analytical Instruments, formerly Wallac Oy, Turku, Finland) and the LogD value was determined using following equation: LogD=Log(cpmoctanol phase/cpmPBS phase)
# human CCK2R [4] = target: T1, human CCK2R (Homo sapiens, UniProt P32239); experiment: Competitive binding assay against [125I][3-iodo-Tyr12,Leu15]gastrin-I on A431-CCK2R cells; details: unlabeled peptide, 1 h at RT, radioligand [125I][3-iodo-Tyr12,Leu15]gastrin-I, mean ± sd of three independent experiments in triplicates
# T1 construct: expressed in transfected cells; host or cells: A431 human epidermoid carcinoma cells, stably transfected (A431-CCK2R); originally provided by Dr. Luigi Aloj
# T1 sequence (P32239 1-447): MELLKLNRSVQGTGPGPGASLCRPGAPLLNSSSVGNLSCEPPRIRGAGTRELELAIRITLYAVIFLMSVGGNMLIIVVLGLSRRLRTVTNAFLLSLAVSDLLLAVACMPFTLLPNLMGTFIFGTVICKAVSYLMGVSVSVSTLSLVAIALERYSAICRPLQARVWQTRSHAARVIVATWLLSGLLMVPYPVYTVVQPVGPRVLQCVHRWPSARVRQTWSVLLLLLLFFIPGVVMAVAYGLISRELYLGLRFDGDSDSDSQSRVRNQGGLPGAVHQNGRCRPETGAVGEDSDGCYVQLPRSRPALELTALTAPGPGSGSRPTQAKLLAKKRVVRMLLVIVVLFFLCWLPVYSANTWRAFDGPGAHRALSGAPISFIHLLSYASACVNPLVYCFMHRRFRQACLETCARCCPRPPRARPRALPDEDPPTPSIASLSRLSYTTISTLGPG
# Text: (§1) A431 human epidermoid carcinoma cells overexpressing human CCK2R through stable transfection (A431-CCK2R) and the same cell line transfected with the empty vector (A431-mock) were used for cell assays. The cells are constantly available in our laboratory and were originally provided by Dr. Luigi Aloj. All cell culture media and reagents were obtained from Invitrogen Corporation (Lofer, Austria) or Sigma-Aldrich (Darmstadt, Germany). Dulbecco’s modified Eagle’s medium (DMEM) supplemented with 10% (v/v) fetal bovine serum and 1% of 100x penicillin−streptomycin−glutamine was used for cell culture. The cells were passaged three times per week using a 10x 2.5% trypsin-EDTA solution in a 1:2–1:3 ratio.
# Receptor affinity studies of the DOTA-conjugates for the CCK2R was competitively evaluated against [^125I][3-iodo-Tyr^12,Leu^15]gastrin-I. The binding assays were performed in 96-well filter plates (MultiScreenHTS-FB, Merck Group, Darmstadt, Germany) as previously described. A431-CCK2R cells (200,000–400,000/well) were incubated for 1 h at RT with the peptides (concentration range of 0.01–1000 nM) and [^125I][3-iodo-Tyr^12,Leu^15]gastrin-I (~25,000 cpm). The incubation was arrested by filtering the medium by vacuum and rinsing twice rapidly with ice-cold binding assay buffer (10 mM TRIS/139 mM NaCl, pH 7.3). The filters were removed from the plate, transferred into 4.5 mL tubes and measured in the γ-counter. Data were normalized from 0 to 100 for graphical representation of exemplary binding curves. Origin software (Microcal Origin 6.1, Northampton, MA, USA) was used to calculate the half maximal inhibitory concentration (IC50) values by nonlinear regression and expressed as mean ± sd for three independent experiments performed in triplicates. An additional cell uptake study at 2 h after incubation was performed for DOTA-[(N-Me)1Nal^8]MGS5 radiolabeled with gallium-68 and lutetium-177 (see Figure S4 of the Supplementary Materials).
# human CCK2R [5] = target: T1, human CCK2R; experiment: Calcium mobilization assay (fluo-4 AM) on A431-CCK2R cells; type: cell-based; details: normalized to 10^−6 M pentagastrin, mean ± SEM of at least three independent experiments in triplicates
# Text: as §1
# Analog-induced receptor activation was evaluated by a calcium mobilization assay using the calcium-sensitive dye fluo-4 AM (ThermoFisher Scientific, Montigny-Le-Bretonneux, France), as previously described. Briefly, A431-CCK2R cells were seeded (60,000/well) in flat clear bottom black 96-well plates (Corning, Bagneaux-sur-Loing, France) coated with poly-L-ornithine (100 µg/mL, 1 h, 37 °C) (Sigma Aldrich, Saint Quentin Fallavier, France). Cytosolic Ca^2+ variations were measured before and after application of 50 µL of graded concentrations of the investigated peptides in the vicinity of the cells, and the effects on Ca^2+ mobilization were measured. Data were background corrected and normalized for the amplitudes caused by the medium alone (0%, no self-effect) or 10^−6 M pentagastrin (100%, maximal Ca^2+ mobilization response). Prism 4.0 software was used to calculate the EC50 values and the results were expressed as mean ± SEM for at least three independent experiments performed in triplicates.
# [6] = radiolabeled peptide (111In where no radiometal named), 24 h after incubation, Sephadex G-50, γ-counter, n = 2
# [7] = radiolabeled peptide (111In where no radiometal named), 24 h after incubation
SMILES,"Binding to Serum Proteins (%) [1, 6]","Intact Radiopeptide in Human Serum (%) [2, 7]",LogD [3],IC50 (human CCK2R [4]),EC50 (human CCK2R [5]),other results
CCCC[C@@H](C(=O)N[C@@H](CC(=O)O)C(=O)N[C@@H](Cc1ccccc1)C(N)=O)N(C)C(=O)[C@H](Cc1c[nH]c2ccccc12)NC(=O)CNC(=O)[C@H](Cc1ccc(O)cc1)NC(=O)[C@H](C)NC(=O)[C@@H](CCC(=O)O)NC(=O)CN1CCN(CC(=O)O)CCN(CC(=O)O)CCN(CC(=O)O)CC1 [DOTA-[Phe^8]MGS5] ({DOTA}-[dE]AYGW[NMeNle]DF-NH2),20.2 ± 1.6%,54.0 ± 0.8%,−3.2 ± 0.1,,,
CCCC[C@@H](C(=O)N[C@@H](CC(=O)O)C(=O)N[C@@H](Cc1cccc2ccccc12)C(=O)NC)N(C)C(=O)[C@H](Cc1c[nH]c2ccccc12)NC(=O)CNC(=O)[C@H](Cc1ccc(O)cc1)NC(=O)[C@H](C)NC(=O)[C@@H](CCC(=O)O)NC(=O)CN1CCN(CC(=O)O)CCN(CC(=O)O)CCN(CC(=O)O)CC1 [DOTA-MGS5[NHCH3]] [listing 1 of 2 here],40.9 ± 3.1%,98.1 ± 0.4%,−2.3 ± 0.2,,,
CCCC[C@@H](C(=O)N[C@@H](CC(=O)O)C(=O)N[C@@H](Cc1cccc2ccccc12)C(=O)NC)N(C)C(=O)[C@H](Cc1c[nH]c2ccccc12)NC(=O)CNC(=O)[C@H](Cc1ccc(O)cc1)NC(=O)[C@H](C)NC(=O)[C@@H](CCC(=O)O)NC(=O)CN1CCN(CC(=O)O)CCN(CC(=O)O)CCN(CC(=O)O)CC1 [DOTA-MGS5[NHCH3]] [listing 2 of 2 here],,,,13.2 ± 1.5 nM,41 ± 14.7 nM,
CCCC[C@@H](C(=O)N[C@@H](CC(=O)O)C(=O)N[C@@H](Cc1ccc2ccccc2c1)C(N)=O)N(C)C(=O)[C@H](Cc1c[nH]c2ccccc12)NC(=O)CNC(=O)[C@H](Cc1ccc(O)cc1)NC(=O)[C@H](C)NC(=O)[C@@H](CCC(=O)O)NC(=O)CN1CCN(CC(=O)O)CCN(CC(=O)O)CCN(CC(=O)O)CC1 [DOTA-[2Nal^8]MGS5] [listing 1 of 2 here],34.6 ± 0.3%,92.0 ± 1.2%,−1.7 ± 0.2,,,
"CCCC[C@@H](C(=O)N[C@@H](CC(=O)O)C(=O)N[C@@H](Cc1ccccc1)C(N)=O)N(C)C(=O)[C@H](Cc1c[nH]c2ccccc12)NC(=O)CNC(=O)[C@H](Cc1ccc(O)cc1)NC(=O)[C@H](C)NC(=O)[C@@H](CCC(=O)O)NC(=O)CN1CCN(CC(=O)O)CCN(CC(=O)O)CCN(CC(=O)O)CC1 [[^111In]In-DOTA-[Phe^8]MGS5, metal not drawn] ({DOTA}-[dE]AYGW[NMeNle]DF-NH2)",,,,,,"fraction unbound at 1 h, 500 pmol/mL ([1]; human, radiolabeled peptide, 1 h after incubation, Sephadex G-50, n = 2): 0.919; fraction unbound at 4 h, 500 pmol/mL ([1]; human, radiolabeled peptide, 4 h after incubation, Sephadex G-50, n = 2): 0.882; fraction unbound at 24 h, 500 pmol/mL [1, 6]: 0.798; remaining at 1 h, 1000 pmol/mL ([2]; human, radiolabeled peptide, 1 h after incubation): 99.5 ± 0.7%; remaining at 4 h, 1000 pmol/mL ([2]; human, radiolabeled peptide, 4 h after incubation): 92.5 ± 0.7%; remaining at 24 h, 1000 pmol/mL [2, 7]: 54 ± 0.8%; LogD ([3]; read-out: LogD): -3.19 ± 0.06"
CCCC[C@@H](C(=O)N[C@@H](CC(=O)O)C(=O)N[C@@H](Cc1ccc2ccccc2c1)C(N)=O)N(C)C(=O)[C@H](Cc1c[nH]c2ccccc12)NC(=O)CNC(=O)[C@H](Cc1ccc(O)cc1)NC(=O)[C@H](C)NC(=O)[C@@H](CCC(=O)O)NC(=O)CN1CCN(CC(=O)O)CCN(CC(=O)O)CCN(CC(=O)O)CC1 [DOTA-[2Nal^8]MGS5] [listing 2 of 2 here],,,,1.7 ± 0.1 nM,12.8 ± 2.4 nM,
CCCC[C@@H](C(=O)N[C@@H](CC(=O)O)C(=O)N(C)[C@@H](Cc1cccc2ccccc12)C(N)=O)N(C)C(=O)[C@H](Cc1c[nH]c2ccccc12)NC(=O)CNC(=O)[C@H](Cc1ccc(O)cc1)NC(=O)[C@H](C)NC(=O)[C@@H](CCC(=O)O)NC(=O)CN1CCN(CC(=O)O)CCN(CC(=O)O)CCN(CC(=O)O)CC1 [DOTA-[(N-Me)1Nal^8]MGS5],39.8 ± 4.2%,99.6 ± 0.1%,−2.4 ± 0.3,,,
CCCC[C@@H](C(=O)N[C@@H](CC(=O)O)C(=O)N[C@@H](Cc1cccc2ccccc12)C(N)=O)N(C)C(=O)[C@H](Cc1c[nH]c2ccccc12)NC(=O)CNC(=O)[C@H](Cc1ccc(O)cc1)NC(=O)[C@H](C)NC(=O)[C@@H](CCCCN)NC(=O)CN1CCN(CC(=O)O)CCN(CC(=O)O)CCN(CC(=O)O)CC1 [DOTA-[DLys^1]MGS5] ({DOTA}-[dK]AYGW[NMeNle]D[1Nal]-NH2) [listing 1 of 2 here],27.8 ± 0.4%,98.1 ± 1.1%,−1.3 ± 0.1,,,
CCCC[C@@H](C(=O)N[C@@H](CC(=O)O)C(=O)N[C@@H](Cc1cccc2ccccc12)C(N)=O)N(C)C(=O)[C@H](Cc1c[nH]c2ccccc12)NC(=O)CNC(=O)[C@H](Cc1ccc(O)cc1)NC(=O)[C@H](C)NC(=O)[C@@H](CCCCN)NC(=O)CN1CCN(CC(=O)O)CCN(CC(=O)O)CCN(CC(=O)O)CC1 [DOTA-[DLys^1]MGS5] ({DOTA}-[dK]AYGW[NMeNle]D[1Nal]-NH2) [listing 2 of 2 here],,,,0.9 ± 0.8 nM,43.5 ± 14.1 nM,
